The values below come from patent publication US7943770B2, “Fused quinoline derivative and use thereof” (Takeda Pharmaceutical Company Limited, priority 2004, dated 2011).

The structures appear in SMILES notation.

For this experiment, the target named is T1, hNK2 receptor (Homo sapiens, UniProt P21452).
T1 construct: host or cells: CHO cells
T1 sequence (P21452 1-398): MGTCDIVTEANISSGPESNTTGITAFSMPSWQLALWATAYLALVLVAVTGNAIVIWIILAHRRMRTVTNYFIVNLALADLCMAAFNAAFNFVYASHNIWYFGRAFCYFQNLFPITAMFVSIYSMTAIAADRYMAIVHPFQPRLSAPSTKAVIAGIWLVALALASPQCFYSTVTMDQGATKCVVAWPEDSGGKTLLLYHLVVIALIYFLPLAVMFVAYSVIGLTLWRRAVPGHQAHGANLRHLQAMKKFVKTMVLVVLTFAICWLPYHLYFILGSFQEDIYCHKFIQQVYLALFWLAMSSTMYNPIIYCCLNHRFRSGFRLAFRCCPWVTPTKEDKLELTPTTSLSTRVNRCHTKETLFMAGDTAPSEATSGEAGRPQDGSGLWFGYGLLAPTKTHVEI
Nature of the experiment: Radio-ligand ([125I]-NKA) receptor binding inhibitory activity using membrane fraction of hNK2 receptor-expressing CHO cell. Conditions: membrane fraction of hNK2 receptor-expressing CHO cells, 25° C., 30 min. Summed up:
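Inhibition of [125I]-NKA binding ([…] solution added) measured after 30 min at 25 °C using hNK2-CHO membrane fraction (20 μg/mL suspension) in pH 7.4 Tris buffer containing MnCl2, BSA and protease inhibitors. Filter-bound counts read; activity calculated as fraction of specific binding, non-specific defined with unlabeled NKA.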
`COC[C@@H]1Nc2ccccc2[C@H]2[C@@H]1CCN2C(=O)[C@H]1CCCC[C@H]1NC(=O)c1ccc2c(c1)OCCN2C` [Example 269, N-((1R,2S)-2-{[(3aR,4R,9bR)-4-(Methoxymethyl)-2,3,3a,4,5,9b-hexahydro-1H-pyrrolo[3,2-c]quinolin-1-yl]carbonyl}cyclohexyl)-4-methyl-3,4-dihydro-2H-1,4-benzoxazin-7-carboxamide]: the IC50 (as a rule, the concentration at which inhibition is half-maximal) was less than 1 nM.
The result for `COC[C@@H]1Nc2ccccc2[C@H]2[C@@H]1CCN2C(=O)[C@H]1CCCC[C@H]1NC(=O)c1ccc(N(C)CCO)cc1` [Example 270, 4-[(2-Hydroxyethyl) (methyl)amino]-N-((1R,2S)-2-{[(3aR,4R,9bR)-4-(methoxymethyl)-2,3,3a,4,5,9b-hexahydro-1H-pyrrolo[3,2-c]quinolin-1-yl]carbonyl}cyclohexyl)benzamide] reads less than 10 nM; that for `COC[C@@H]1Nc2ccccc2[C@H]2[C@@H]1CCN2C(=O)[C@H]1CCCC[C@H]1NC(=O)c1ccc(-n2ccnc2C)cc1` [Example 271, N-((1R,2S)-2-{[(3aR,4R,9bR)-4-(Methoxymethyl)-2,3,3a,4,5,9b-hexahydro-1H-pyrrolo[3,2-c]quinolin-1-yl]carbonyl}cyclohexyl)-4-(2-methyl-1H-imidazol-1-yl)benzamide], less than 10 nM; that for `COC[C@@H]1Nc2ccccc2[C@H]2[C@@H]1CCN2C(=O)[C@H]1CCCC[C@H]1NC(=O)c1ccc(-n2cnc(C)c2)cc1` [Example 272, N-((1R,2S)-2-{[(3aR,4R,9bR)-4-(Methoxymethyl)-2,3,3a,4,5,9b-hexahydro-1H-pyrrolo[3,2-c]quinolin-1-yl]carbonyl}cyclohexyl)-4-(4-methyl-1H-imidazol-1-yl)benzamide], less than 1 nM.
The figure for `COCCN(C)c1ccc(C(=O)N[C@@H]2CCCC[C@@H]2C(=O)N2CC[C@@H]3[C@H](COC)Nc4ccccc4[C@@H]32)cc1` [Example 273, 4-[(2-Methoxyethyl)(methyl)amino]-N-((1R,2S)-2-{[(3aR,4R,9bR)-4-(methoxymethyl)-2,3,3a,4,5,9b-hexahydro-1H-pyrrolo[3,2-c]quinolin-1-yl]carbonyl}cyclohexyl)benzamide] is less than 1 nM; for `COC[C@@H]1Nc2ccccc2[C@H]2[C@@H]1CCN2C(=O)[C@H]1CCCC[C@H]1NC(=O)c1ccc(C#N)c(OC)c1` [Example 274, 4-Cyano-3-methoxy-N-((1R,2S)-2-{[(3aR,4R,9bR)-4-(methoxymethyl)-2,3,3a,4,5,9b-hexahydro-1H-pyrrolo[3,2-c]quinolin-1-yl]carbonyl}cyclohexyl)benzamide] it is less than 10 nM.
The result for `COC[C@@H]1Nc2ccccc2[C@H]2[C@@H]1CCN2C(=O)[C@H]1CCCC[C@H]1NC(=O)c1ccc(OC)c(C#N)c1` [Example 275, 3-Cyano-4-methoxy-N-((1R,2S)-2-{[(3aR,4R,9bR)-4-(methoxymethyl)-2,3,3a,4,5,9b-hexahydro-1H-pyrrolo[3,2-c]quinolin-1-yl]carbonyl}cyclohexyl)benzamide] reads less than 1 nM; that for `COC[C@@H]1Nc2ccccc2[C@H]2[C@@H]1CCN2C(=O)[C@H]1CCCC[C@H]1NC(=O)c1ccc2c(c1)nc(C)n2C` [Example 276, N-((1R,2S)-2-{[(3aR,4R,9bR)-4-(Methoxymethyl)-2,3,3a,4,5,9b-hexahydro-1H-pyrrolo[3,2-c]quinolin-1-yl]carbonyl}cyclohexyl)-1,2-dimethyl-1H-benzimidazole-5-carboxamide], less than 10 nM.
`COC[C@@H]1Nc2ccccc2[C@H]2[C@@H]1CCN2C(=O)[C@H]1CCCC[C@H]1NC(=O)Nc1ccc(-n2ccnc2)cc1` [Example 277, N-[4-(1H-Imidazol-1-yl)phenyl]-N′-((1R,2S)-2-{[(3aR,4R,9bR)-4-(methoxymethyl)-2,3,3a,4,5,9b-hexahydro-1H-pyrrolo[3,2-c]quinolin-1-yl]carbonyl}cyclohexyl)urea] came in with an IC50 of less than 1 nM.
As to `COC[C@@H]1Nc2ccccc2[C@H]2[C@@H]1CCN2C(=O)[C@H]1CCCC[C@H]1NC(=O)c1ccc(S(C)(=O)=O)cc1` [Example 278, N-((1R,2S)-2-{[(3aR,4R,9bR)-4-(Methoxymethyl)-2,3,3a,4,5,9b-hexahydro-1H-pyrrolo[3,2-c]quinolin-1-yl]carbonyl}cyclohexyl)-4-(methylsulfonyl)benzamide], the IC50 is less than 10 nM.
The figure for `COC[C@@H]1Nc2ccccc2[C@H]2[C@@H]1CCN2C(=O)[C@H]1CCCC[C@H]1NC(=O)c1ccc2[nH]c(C)nc2c1` [Example 279, N-((1R,2S)-2-{[(3aR,4R,9bR)-4-(Methoxymethyl)-2,3,3a,4,5,9b-hexahydro-1H-pyrrolo[3,2-c]quinolin-1-yl]carbonyl}cyclohexyl)-2-methyl-1H-benzimidazole-5-carboxamide] is less than 1 nM.
For the compound `COC[C@@H]1Nc2ccccc2[C@H]2[C@@H]1CCN2C(=O)[C@H]1CCCC[C@H]1NC(=O)c1c[nH]c(-c2ccccc2)n1` [Example 280, N-((1R,2S)-2-{[(3aR,4R,9bR)-4-(Methoxymethyl)-2,3,3a,4,5,9b-hexahydro-1H-pyrrolo[3,2-c]quinolin-1-yl]carbonyl}cyclohexyl)-2-phenyl-1H-imidazole-4-carboxamide], the IC50 was less than 1 nM.
The figure for `COC[C@@H]1Nc2ccccc2[C@H]2[C@@H]1CCN2C(=O)[C@H]1CCCC[C@H]1NC(=O)c1ccc(-c2ncc[nH]2)cc1` [Example 281, 4-(1H-imidazol-2-yl)-N-((1R,2S)-2-{[(3aR,4R,9bR)-4-(methoxymethyl)-2,3,3a,4,5,9b-hexahydro-1H-pyrrolo[3,2-c]quinolin-1-yl]carbonyl}cyclohexyl)benzamide] is less than 1 nM.
For the compound `COC[C@@H]1Nc2ccccc2[C@H]2[C@@H]1CCN2C(=O)[C@H]1CCCC[C@H]1NC(=O)c1ccc2[nH]c(C(F)(F)F)nc2c1` [Example 282, N-((1R,2S)-2-{[(3aR,4R,9bR)-4-(Methoxymethyl)-2,3,3a,4,5,9b-hexahydro-1H-pyrrolo[3,2-c]quinolin-1-yl]carbonyl}cyclohexyl)-2-(trifluoromethyl)-1H-benzimidazole-5-carboxamide], the IC50 was less than 10 nM.
The figure for `COC[C@@H]1Nc2ccccc2[C@H]2[C@@H]1CCN2C(=O)[C@H]1CCCC[C@H]1NC(=O)Nc1ccc(C#N)c(C)c1` [Example 283, N-(4-Cyano-3-methylphenyl)-N′-((1R,2S)-2-{[(3aR,4R,9bR)-4-(methoxymethyl)-2,3,3a,4,5,9b-hexahydro-1H-pyrrolo[3,2-c]quinolin-1-yl]carbonyl}cyclohexyl)urea] is less than 1 nM; for `COC[C@@H]1Nc2ccccc2[C@H]2[C@@H]1CCN2C(=O)[C@H]1CCCC[C@H]1NC(=O)Nc1ccc(-n2cccn2)cc1` [Example 284, N-((1R,2S)-2-{[(3aR,4R,9bR)-4-(methoxymethyl)-2,3,3a,4,5,9b-hexahydro-1H-pyrrolo[3,2-c]quinolin-1-yl]carbonyl}cyclohexyl)-N′-[4-(1H-pyrazol-1-yl)phenyl]urea] it is less than 1 nM; for `COC[C@@H]1Nc2ccccc2[C@H]2[C@@H]1CCN2C(=O)[C@H]1CCCC[C@H]1NC(=O)Nc1ccc(OC)c(C#N)c1` [Example 285, N-(3-Cyano-4-methoxyphenyl)-N′-((1R,2S)-2-{[(3aR,4R,9bR)-4-(methoxymethyl)-2,3,3a,4,5,9b-hexahydro-1H-pyrrolo[3,2-c]quinolin-1-yl]carbonyl}cyclohexyl)urea] it is less than 1 nM.
The figure for `COC[C@@H]1Nc2ccccc2[C@H]2[C@@H]1CCN2C(=O)[C@H]1CCCC[C@H]1NC(=O)c1ccc(N2CCOCC2)nc1` [Example 286, N-((1R,2S)-2-{[(3aR,4R,9bR)-4-(Methoxymethyl)-2,3,3a,4,5,9b-hexahydro-1H-pyrrolo[3,2-c]quinolin-1-yl]carbonyl}cyclohexyl)-6-morpholin-4-ylnicotinamide] is less than 10 nM; for `COC[C@@H]1Nc2ccccc2[C@H]2[C@@H]1CCN2C(=O)[C@H]1CCCC[C@H]1NC(=O)c1ccc(-n2ccnc2C)nc1` [Example 287, N-((1R,2S)-2-{[(3aR,4R,9bR)-4-(Methoxymethyl)-2,3,3a,4,5,9b-hexahydro-1H-pyrrolo[3,2-c]quinolin-1-yl]carbonyl}cyclohexyl)-6-(2-methyl-1H-imidazol-1-yl)nicotinamide] it is less than 10 nM.
The result for `COC[C@@H]1Nc2ccccc2[C@H]2[C@@H]1CCN2C(=O)[C@H]1CCCC[C@H]1NC(=O)c1ccc(-n2cccn2)nc1` [Example 288, N-((1R,2S)-2-{[(3aR,4R,9bR)-4-(Methoxymethyl)-2,3,3a,4,5,9b-hexahydro-1H-pyrrolo[3,2-c]quinolin-1-yl]carbonyl}cyclohexyl)-6-(1H-pyrazol-1-yl)nicotinamide] reads less than 1 nM; that for `COC[C@@H]1Nc2ccccc2[C@H]2[C@@H]1CCN2C(=O)[C@H]1CCCC[C@H]1NC(=O)Nc1ccc(N2CCOCC2)nc1` [Example 289, N-((1R,2S)-2-{[(3aR,4R,9bR)-4-(Methoxymethyl)-2,3,3a,4,5,9b-hexahydro-1H-pyrrolo[3,2-c]quinolin-1-yl]carbonyl}cyclohexyl)-N′-(6-morpholin-4-ylpyridin-3-yl)urea], less than 10 nM; that for `COC[C@@H]1Nc2ccccc2[C@H]2[C@@H]1CCN2C(=O)[C@H]1CCCC[C@H]1NC(=O)c1ccc(-c2cnco2)cc1` [Example 290, N-((1R,2S)-2-{[(3aR,4R,9bR)-4-(Methoxymethyl)-2,3,3a,4,5,9b-hexahydro-1H-pyrrolo[3,2-c]quinolin-1-yl]carbonyl}cyclohexyl)-4-(1,3-oxazol-5-yl)benzamide], less than 1 nM.
